# Laboratory results as given in publication PMC11786100, “Chronic GIPR agonism results in pancreatic islet GIPR functional desensitisation” (Molecular Metabolism, 2025).
# Target: T1, GIPR (Mus musculus, UniProt Q0P543)
# T1 construct: from tissue; host or cells: dispersed pancreatic islets of C57BL/6J, CAMPER Pdx1-CreERT2 and CAMPER Som-Cre mice
# T1 sequence (Q0P543 19-460): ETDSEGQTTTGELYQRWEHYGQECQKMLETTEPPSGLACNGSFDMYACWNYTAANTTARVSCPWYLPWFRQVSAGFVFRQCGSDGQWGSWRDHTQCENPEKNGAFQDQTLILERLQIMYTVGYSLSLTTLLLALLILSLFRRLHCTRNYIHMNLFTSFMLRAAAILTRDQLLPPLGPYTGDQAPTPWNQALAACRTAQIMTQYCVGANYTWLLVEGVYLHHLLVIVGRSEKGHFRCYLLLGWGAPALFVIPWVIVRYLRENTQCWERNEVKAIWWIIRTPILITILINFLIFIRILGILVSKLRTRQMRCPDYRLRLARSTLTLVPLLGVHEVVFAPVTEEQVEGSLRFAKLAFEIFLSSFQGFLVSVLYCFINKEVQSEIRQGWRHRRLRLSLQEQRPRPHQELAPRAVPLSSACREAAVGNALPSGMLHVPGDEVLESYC
# Assay: Ex vivo islet GIPR desensitisation (pre-treat/washout/rechallenge cAMP)
# Format: cell-based
# Conditions: for rechallenge cAMP response after 24-hour pre-treatment: cADDis
# Description: Primary cultures of mouse hypothalamic neurons and dispersed pancreatic islets were transduced with the Green Up cADDis biosensor (Montana Molecular, US). Pancreatic islets from CAMPER^Pdx−1-CreERT2 and CAMPER^Som-Cre mice were not transduced. Cells were pre-treated with peptides as specified, dissolved in culture media. Following 4 h or overnight incubation and a 1-hour washout period, cells were imaged using an epifluorescence microscope at baseline (t = 3 min), following peptide addition (t = 10 min, unless specified otherwise), and following 3-isobutyl-1-methylxanthine (IBMX) (500 μM) and forskolin (FSK) (50 μM) addition (t = 3 min) to maximally stimulate the sensor. In pre-treatment experiments, islet cell fluorescence was normalised to the IBMX/FSK response which was set as 100%. In non-pre-treatment experiments, islet and neuronal cell fluorescence was normalised to both the baseline and IBMX/FSK response. The area-under-the-curve (AUC) for each cell was quantified. Full details of isolation, transduction, plating, imaging and image analysis is provided in the supplementary methods.
# During this treatment, peptides were dissolved in islet culture media. Prior to imaging, the peptide washout period was 1 hour in Krebs buffer with 6 mM glucose and 0.1% BSA.
# Cells were imaged in Krebs buffer with 6 mM glucose and 0.1% BSA (unless 10% FBS was specified) at 37°C using an automated epifluorescence microscope (modified Nikon Ti-2E with LED illumination). Multiple fields of view (FOV) were imaged in parallel (for islets, multiple wells of a 96 well plate were imaged in parallel), allowing hundreds to thousands of cells to be imaged every minute throughout the time course. For all acquisitions, the first three minutes were baseline recording pre-peptide addition and the last three minutes were a positive control following IBMX (500 μM) and forskolin (50 μM) addition to maximally stimulate the sensor.
# Cells were imaged in a similar setup described in the previous paragraph. However, an image spitter (OptoSplit III, Cairn Research Ltd, UK) was used to enable simultaneous acquisition of cyan fluorescent protein (CFP) and yellow fluorescent protein (YFP) emission. cAMP was quantified based on the YFP/CFP FRET ratio from each cell.
# cAMP quantification from the raw islet/neuronal images was performed using Fiji v1.54f (NIH). […] The fluorescence intensity of each ROI was measured at each time point. In pre-treatment experiments, islet cell fluorescence was normalised to the maximal IBMX/FSK response which was set as 100%. For non-pre-treatment experiments, neuronal and islet cell fluorescence were normalised to both the baseline and maximal IBMX/FSK response. The AUC during peptide stimulation for each cell was quantified. […]
smiles,measurement,setting,value
CC[C@H](C)[C@H](NC(=O)[C@H](CO)NC(=O)[C@H](Cc1ccc(O)cc1)NC(=O)[C@H](CC(=O)O)NC(=O)[C@H](CO)NC(=O)[C@@H](NC(=O)[C@H](Cc1ccccc1)NC(=O)[C@@H](NC(=O)CNC(=O)[C@H](CCC(=O)O)NC(=O)C(C)(C)NC(=O)[C@@H](N)Cc1ccc(O)cc1)[C@@H](C)O)[C@@H](C)CC)C(=O)N[C@@H](C)C(=O)N[C@@H](CC(C)C)C(=O)N[C@@H](CC(=O)O)C(=O)N[C@@H](CCCCN)C(=O)N[C@H](C(=O)N[C@@H](Cc1c[nH]cn1)C(=O)N[C@@H](CCC(N)=O)C(=O)N[C@@H](CCC(N)=O)C(=O)N[C@@H](CC(=O)O)C(=O)N[C@@H](Cc1ccccc1)C(=O)N[C@H](C(=O)N[C@@H](CC(N)=O)C(=O)N[C@@H](Cc1c[nH]c2ccccc12)C(=O)N[C@@H](CC(C)C)C(=O)N[C@@H](CC(C)C)C(=O)N[C@@H](C)C(=O)N[C@@H](CCC(N)=O)C(=O)N[C@@H](CCCCN)C(=O)NCC(=O)N[C@@H](CCCCNC(=O)CC[C@H](NC(=O)CCCCCCCCCCCCCCCCCCC(=O)O)C(=O)O)C(=O)N[C@@H](CCCCN)C(=O)N[C@@H](CC(N)=O)C(=O)N[C@@H](CC(=O)O)C(=O)N[C@@H](Cc1c[nH]c2ccccc12)C(=O)N[C@@H](CCCCN)C(=O)N[C@@H](Cc1c[nH]cn1)C(=O)N[C@@H](CC(N)=O)C(=O)N[C@H](C(=O)N[C@H](C(=O)N[C@@H](CCC(N)=O)C(=O)O)[C@@H](C)O)[C@@H](C)CC)C(C)C)[C@@H](C)CC [GIP108],GIPR desensitisation in pancreatic beta cells,"24 h GIP108 pre-treatment, TEpacVV FRET sensor, CAMPER Pdx-1-CreERT2 mice, n = 4",GIPR desensitisation was observed in both cell types
same,GIPR desensitisation in pancreatic delta cells,"24 h GIP108 pre-treatment, TEpacVV FRET sensor, CAMPER Som-Cre mice, n = 5",GIPR desensitisation was observed in both cell types
same,rechallenge cAMP response after 24-hour pre-treatment,"islets from HFD-induced obese mice, pre-treatment and rechallenge GIP108 (1 µM), n=3",The same effects were observed
same,rechallenge cAMP response after 24-hour pre-treatment,"pre-treatment 100 nM or 1 μM GIP108, rechallenge GIP108 (1 μM), dispersed islets from lean mice, n = 11–12",significantly reduced
